Values of other authors in patent US20110313191A1, “Preparation of Pharmaceutical Salts of 3-0-(3',3'-Dimethylsuccinyl) Betulinic Acid” (Myrexis, Inc., priority 2005, published 2011).

Test system: HIV
Details: comparison with regioisomer 3-O-2′,2′-DSB; literature statement

C=C(C)[C@@H]1CC[C@]2(C(=O)O)CC[C@]3(C)[C@H](CC[C@@H]4[C@@]5(C)CC[C@H](OC(=O)CC(C)(C)C(=O)O)C(C)(C)[C@@H]5CC[C@]43C)[C@@H]12 [3-O-3′,3′-DSB, 3-O-(3′,3′-dimethylsuccinyl)betulinic acid]
EC50 of 3-O-3′,3′-DSB relative to that of 3-O-2′,2′-DSB: about four orders of magnitude lower
